Reference: patent US7439071B2, “Method of employing elevation of marinobufagenin in determining the presence of preeclampsia and related apparatus” (The Administrators of the Tulane Educational Fund, priority 2003, dated 2008)

System: vessels from preeclamptic rats / normal pregnant rats
Assay: Perfusion of individual vessels dissected from rat models of preeclampsia and from normal pregnant rats with marinobufagenin
Source text: It is elevated substantially more in preeclamptic rats.

## C[C@]12CC[C@H](O)C[C@@]1(O)CC[C@@H]1[C@@H]2CC[C@]2(C)[C@@H](c3ccc(=O)oc3)C[C@H]3O[C@]132 [marinobufagenin]
Vessels from normal pregnant animals or rats perfused with marinobufagenin
  constriction of perfused vessels: do not constrict
Vessels from preeclamptic rats perfused with marinobufagenin
  constriction of perfused vessels as compared with the controlled circumstance (average): about 36%
